Five compounds from patent publication US20250369975A1, “METHOD FOR DETECTING TRANSTHYRETIN TETRAMER, AND METHOD FOR EVALUATING STABILITY” (SYSMEX CORPORATION, priority 2024, published 2025) can be followed below.

A short description of data set [1]: Comparative Example 2: 48-hour urea treatment, then sandwich ELISA (TTR 4mer %). Format: physicochemical, human. The following applies: urea 7.2 M, 25° C., Dunnett's test, FIG. 24A. As to the method:
The recombinant TTR of the wild-type (WT), the stabilized variant (Ti19M), and the destabilized variant (V30M) as in Example 1 were used as the recombinant TTR. These recombinant TTRs were diluted with 1% BSA/PBS, to prepare a sample containing 16 µg/mL of each recombinant TTR. Sera obtained from patients with atrial fibrillation (n=26), wild-type ATTR patients (n=18), and ATTR patients with destabilized mutation (A36D) (n=2) were diluted 10 times with 1% BSA/PBS, to prepare various serum samples. A calibrator was prepared in the same manner as in Comparative Example 1.
As the detection antibody and the labeling substance, a biotin-labeled antibody solution and an ALP solution were prepared in the same manner as in Comparative Example 1. An anti-TTR antibody solution was prepared as the capture antibody in the same manner as in Comparative Example 1. […]
Each sample was measured by sandwich ELISA in the same manner as in (3.2) of Comparative Example 1. The calibrator was measured in the same manner. A calibration curve was prepared from the measured values of the calibrators, and the TTR level of each sample was acquired with use of the calibration curve. TTR 4 mer % of the sample after the urea treatment was calculated from the following calculation formula, using the TTR levels of the sample after the urea treatment and the sample without the urea treatment. […]

The test system of data set [2] is TTR tetramer (recombinant human transthyretin WT, T119M, V30M). Format: binding. The following applies: probe solution 10 μM; recombinant TTR 100 ng/mL; FIG. 14A-D.
Data set [3] concerns the target T1, TTR tetramer (recombinant human transthyretin WT, T119M, V30M) (Homo sapiens, UniProt P02766, T139M).
T1 construct: purchased AlexoTech T-500-10 (WT); T-515-10 (T119M); T-505-10 (V30M)
In kind it is binding. The following applies: probe solution 10 μM; recombinant TTR 100 ng/mL; FIG. 14A.

For data set [4], the target named is T2, TTR tetramer (recombinant human transthyretin WT, T119M, V30M) (Homo sapiens, UniProt P02766, V50M).
T2 construct: purchased AlexoTech T-500-10 (WT); T-515-10 (T119M); T-505-10 (V30M)
Format: binding. The following applies: probe solution 10 μM; recombinant TTR 100 ng/mL; FIG. 14A.

Data set [5] has as its system TTR tetramer (recombinant human transthyretin WT, T119M, V30M). Format: binding. The following applies: probe solution 0.3 μM immobilized on solid phase; recombinant TTR 100 ng/mL; FIG. 16A-B.
For data set [6], the target named is T1, TTR tetramer (recombinant human transthyretin WT, T119M, V30M). In kind it is binding. The following applies: probe solution 0.3 μM immobilized; FIG. 16A.
Data set [7] deals with T2, TTR tetramer (recombinant human transthyretin WT, T119M, V30M). Format: binding. The following applies: probe solution 0.3 μM immobilized; FIG. 16A.
Data set [8] concerns TTR tetramer (recombinant human transthyretin WT, T119M, V30M). In kind it is binding. The following applies: probe solution 0.2 μM mixed with sample; FIG. 18A-B.
Data set [9] addresses T1, TTR tetramer (recombinant human transthyretin WT, T119M, V30M). In kind it is binding. The following applies: probe solution 0.2 μM; FIG. 18A.
The target in data set [10] is T2, TTR tetramer (recombinant human transthyretin WT, T119M, V30M). In kind it is binding. The following applies: probe solution 0.2 μM; FIG. 18A.

Like-named read-outs stand apart in the source and are kept apart here.

On to transthyretin (V30M) human [Probe V30M], for which, in data set [1], the “TTR 4mer % relative to the sample containing wild-type TTR” value is listed as “significantly lower”.
On to Biotin-PEG8-Thyroxine [Probe C1], for which the “chemiluminescence signal measured values of WT, T119M and V30M samples versus blank” value in [2] is given as “higher than the signal measured value of the blank”. The “signal measured value of T119M sample relative to WT sample” value in data set [3] is given as “higher than the signal measured value of WT”. In addition, the “signal measured value of V30M sample relative to WT sample” value in data set [4] is “lower than the signal measured value of WT”.
For “transthyretin (T119M) human, recombinant [Probe T119M]”, in data set [1], the “TTR 4mer % relative to the sample containing wild-type TTR” value is “significantly higher”.
Take `O=C(CCCCC1SCC2NC(=O)NC21)NCCOCCOCCOCCOCCOCCOCCOCCOCCC(=O)Nc1ccc(/C=C/c2cc(Br)c(O)c(Br)c2)cc1` (stereo not shown) [Probe C5, Biotin-PEG8-Stilbene Derivative]: the figures for the “chemiluminescence signal measured values of WT, T119M and V30M samples versus blank” value in data set [5], in [8] and in data set [2] were “higher than the signal measured value of the blank”, “higher than the signal measured value of the blank” and “results similar to those of FIG. 14 A”, respectively. Also, the “signal measured value of T119M sample relative to WT sample” value in data set [6] and in [9] was “higher than the signal measured value of WT” in each case. Also, the “signal measured value of V30M sample relative to WT sample” value in [7] and in data set [10] was “lower than the signal measured value of WT” in each case.
As for biotin-PEG12-thyroxine [Probe C2], in data set [2], the “chemiluminescence signal measured values of WT, T119M and V30M samples versus blank” value was “results similar to those of FIG. 14 A”.
